Experimental findings from ChEMBL document CHEMBL3862023, “Synthesis of N-aryl and N-arylcarbamoylamino derivatives of 1,3-diazinane-5-carboxamide and their activity against glioblastoma LN-229 cell line” (Bioorg Med Chem, 2016) are described below.

Data set [1] is described as follows: Cytotoxicity against human LN229 cells assessed as concentration required for induction of cell death after 24 hrs by crystal violet staining based light microscopic analysis. It is filed as functional, LN-229.
Data set [2] in a line: Solubility of the compound in ethanol. The data set is classed as physicochemical.
Data set [3] in a line: Solubility of the compound in isopropanol. It is filed as physicochemical.
A short description of data set [4]: Solubility of the compound in DMSO. The data set is classed as physicochemical.
A short description of data set [5]: Solubility of the compound in chloroform. It is filed as physicochemical.
Data set [6] can be described thus: Solubility of the compound in trifluoroacetic acid. The data set is classed as physicochemical.
Data set [7] can be described thus: Solubility of the compound in CHCl3/TFA. The data set is classed as physicochemical.
Data set [8] in a line: Solubility of the compound in DMSO/TFA. The data set is classed as physicochemical.

Take `O=C(NNC(=O)C1C(=O)NC(=O)N(c2ccccc2)C1=O)Nc1ccc(Cl)cc1` (centres undefined): the Activity in data set [1] worked out at 100 µg/mL. The solubility entry in data set [2], in data set [3], in data set [4], in data set [5], in data set [6] and in data set [7] was “Insoluble” throughout. The solubility entry in data set [8] is “Insoluble”.

Turning to `CN1C(=O)C(C(=O)NNC(=O)Nc2ccc([N+](=O)[O-])cc2)C(=O)N(C)C1=O`, the Activity in data set [1] was 10 µg/mL. Moreover, the solubility result in data set [2], in data set [3], in data set [4], in data set [5], in data set [6] and in data set [7] was “Insoluble” in each case. Besides, the solubility entry in data set [8] is “Insoluble”.

On to `O=C(NNC(=O)C1C(=O)NC(=O)N(c2ccccc2)C1=O)Nc1cccc(O)c1` (centres undefined), for which the solubility result in data set [2], in data set [3], in data set [4], in data set [5], in data set [6] and in data set [7] was “Insoluble” each time. Also, the solubility result in data set [8] was “Insoluble”.

For the compound `O=C(NNC(=O)C1C(=O)NC(=O)N(c2ccccc2)C1=O)Nc1ccc(F)cc1` (centres undefined), the solubility entry in data set [2], in data set [3], in data set [4], in data set [5], in data set [6] and in data set [7] was “Insoluble” throughout. Also, the solubility result in data set [8] was “Insoluble”.

Take `O=C(NNC(=O)C1C(=O)NC(=O)N(c2ccccc2)C1=O)Nc1ccc(Cl)c(Cl)c1` (centres undefined): in data set [1], the Activity was determined as 100 µg/mL. Further, the solubility result in data set [2], in data set [3], in data set [4], in data set [5], in data set [6] and in data set [7] was “Insoluble” throughout. Also, the solubility entry in data set [8] is on record as “Insoluble”.

Consider `O=C1NC(=O)C(C(=O)NNC(=O)Nc2ccccc2)C(=O)N1`, for which the Activity in data set [1] came to 100 µg/mL. The solubility entry in data set [2] is “Insoluble”; in data set [3], “Insoluble”; in data set [4], “Insoluble”; in data set [5], “Insoluble”; in data set [6], “Soluble”; in data set [7] it was “Soluble”. The solubility entry in data set [8] is recorded as “Soluble”.

On to `O=C(NNC(=O)C1C(=O)NC(=O)N(c2ccccc2)C1=O)Nc1ccccc1` (centres undefined), for which the solubility result in data set [2], in data set [3], in data set [4], in data set [5], in data set [6] and in data set [7] was “Insoluble” each time. In data set [8], the solubility result is “Insoluble”.

For `CN1C(=O)C(C(=O)NNC(=O)Nc2ccc(O)cc2)C(=O)N(C)C1=O`, the Activity in data set [1] is 10 µg/mL. Moreover, the solubility result in data set [2], in data set [3], in data set [4], in data set [5], in data set [6] and in data set [7] was “Insoluble” in each case. In data set [8], the solubility result was “Insoluble”.

For the compound `O=C1NC(=O)C(C(=O)NNC(=O)Nc2ccc(Cl)cc2)C(=O)N1`, the Activity in data set [1] is 100 µg/mL. In addition, the solubility entry in data set [2] is “Insoluble”; in data set [3], “Insoluble”; in data set [4], “Insoluble”; in data set [5], “Insoluble”; in data set [6], “Soluble”; in data set [7], “Soluble”. The solubility result in data set [8] is “Soluble”.

In the case of `CN1C(=O)C(C(=O)NNC(=O)Nc2ccc(Cl)cc2)C(=O)N(C)C1=O`, the Activity in data set [1] was 10 µg/mL. Also, the solubility result in data set [2], in data set [3], in data set [4], in data set [5], in data set [6] and in data set [7] was “Insoluble” throughout. In addition, the solubility result in data set [8] is “Insoluble”.

Take `CN1C(=O)NC(=O)C(C(=O)NNC(=O)Nc2ccc([N+](=O)[O-])cc2)C1=O` (centres undefined): the Activity in data set [1] is 100 µg/mL. Besides, the solubility result in data set [2], in data set [3], in data set [4], in data set [5], in data set [6] and in data set [7] was “Insoluble” in each case. Also, the solubility entry in data set [8] is “Insoluble”.

With `CN1C(=O)C(C(=O)NNC(=O)Nc2ccc(C#N)cc2)C(=O)N(C)C1=O`, in data set [1], the Activity came to 100 µg/mL. Also, the solubility result in data set [2], in data set [3], in data set [4], in data set [5], in data set [6] and in data set [7] was “Insoluble” throughout. For the same compound, the solubility entry in data set [8] is given as “Insoluble”.

`CN1C(=O)C(C(=O)NNC(=O)Nc2ccc(O)c([N+](=O)[O-])c2)C(=O)N(C)C1=O`: the Activity in data set [1] was 10 µg/mL. The solubility entry in data set [2], in data set [3], in data set [4], in data set [5], in data set [6] and in data set [7] was “Insoluble” in each case. Besides, in data set [8], the solubility result is “Insoluble”.

As for `CN1C(=O)C(C(=O)NNC(=O)Nc2ccc(F)cc2)C(=O)N(C)C1=O`, the Activity in data set [1] amounted to 100 µg/mL. The solubility result in data set [2], in data set [3], in data set [4], in data set [5], in data set [6] and in data set [7] was “Insoluble” each time. The solubility entry in data set [8] is “Insoluble”.

Take `CN1C(=O)NC(=O)C(C(=O)NNC(=O)Nc2ccc(Cl)cc2)C1=O` (centres undefined): in data set [1], the Activity is 100 µg/mL. The solubility entry in data set [2], in data set [3], in data set [4], in data set [5], in data set [6] and in data set [7] was “Insoluble” each time. In data set [8], the solubility result is given as “Insoluble”.

`O=C(NNC(=O)C1C(=O)NC(=O)N(c2ccccc2)C1=O)Nc1ccc(O)cc1` (centres undefined): the solubility entry in data set [2], in data set [3], in data set [4], in data set [5], in data set [6] and in data set [7] was “Insoluble” throughout. For the same compound, in data set [8], the solubility entry is recorded as “Insoluble”.
